This note sets out measurements from PMC5400543, “Design, sythesis and evaluation of a series of 3- or 4-alkoxy substituted phenoxy derivatives as PPARs agonists” (Oncotarget, 2017).

The target in series [1] is T1, PPARδ (Homo sapiens, UniProt Q03181).
T1 sequence (Q03181 211-439 limits assumed): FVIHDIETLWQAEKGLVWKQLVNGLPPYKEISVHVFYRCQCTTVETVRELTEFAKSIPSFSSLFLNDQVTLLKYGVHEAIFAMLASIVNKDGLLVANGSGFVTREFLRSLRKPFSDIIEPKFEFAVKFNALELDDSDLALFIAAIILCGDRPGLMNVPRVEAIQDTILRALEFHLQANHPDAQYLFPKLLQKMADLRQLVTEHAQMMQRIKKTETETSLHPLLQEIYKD
Briefly: In vitro PPARδ transactivation assay (Gal4-hPPARδLBD luciferase reporter in 293E cells). To be noted: for PPARδ Activation Fold: 10^−5 M, 24 h, Csamples/Ccontrol, mean±SEM; for Cmax: read-out: Cmax, concentration at maximum efficiency percentage (Max%), PPARδ, 24 h, multiple concentrations.

A further series addresses T2, PPARα (Homo sapiens, UniProt Q07869).
T2 construct: pcDNA3.1-hPPARαLBD-Gal4DB; expressed in transfected cells; host or cells: 293E cells
T2 sequence (Q07869 239-466 limits assumed): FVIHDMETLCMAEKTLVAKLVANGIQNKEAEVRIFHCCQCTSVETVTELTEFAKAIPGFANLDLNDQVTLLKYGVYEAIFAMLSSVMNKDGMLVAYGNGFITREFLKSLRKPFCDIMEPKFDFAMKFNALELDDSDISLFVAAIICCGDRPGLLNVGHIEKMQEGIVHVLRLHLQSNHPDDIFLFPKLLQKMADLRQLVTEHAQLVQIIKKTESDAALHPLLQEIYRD
The series can be described thus: In vitro PPARα transactivation assay (Gal4-hPPARαLBD luciferase reporter in 293E cells). The class given is cell-based. Conditions: 10^−5 M, 24 h, Csamples/Ccontrol, mean±SEM. (In general: In a reporter assay the amount or activity of a reporter protein is the signal.)

Series [2] deals with T3, PPARγ (Homo sapiens, UniProt P37231).
T3 sequence (P37231 238-503 limits assumed): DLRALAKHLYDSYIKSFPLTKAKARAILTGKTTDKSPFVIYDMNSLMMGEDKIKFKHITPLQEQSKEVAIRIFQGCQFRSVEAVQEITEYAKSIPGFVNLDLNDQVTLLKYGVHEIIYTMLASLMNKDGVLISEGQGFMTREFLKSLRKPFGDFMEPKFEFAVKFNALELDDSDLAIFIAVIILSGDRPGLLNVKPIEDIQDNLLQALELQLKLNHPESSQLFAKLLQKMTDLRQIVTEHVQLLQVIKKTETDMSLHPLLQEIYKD
Briefly: In vitro PPARγ transactivation assay (Gal4-hPPARγLBD luciferase reporter in 293E cells). To be noted: 10^−5 M, 24 h, Csamples/Ccontrol, mean±SEM.

Series [3] addresses T1, PPARδ. Briefly: cell-based.
The target in series [4] is T3, PPARγ.
The target in series [5] is T3, PPARγ. Briefly: cell-based.

For orientation: EC50 means the concentration needed to bring the measured effect to its halfway point. A low value points to greater potency. `CC(C)(Oc1ccc(OCCCn2cnc3ccccc32)cc1)C(=O)O` [6e, 2-(4-(3-(1H-benzo[d]imidazol-1-yl)propoxy)phenoxy)-2-methylpropanoic acid]: on PPARδ [1], the “PPARδ Activation Fold” value came to 7.09±0.97 and the Cmax came to 100 nM. Further, at PPARα, the “PPARα Activation Fold” value is reported as 1.38±0.06. Further, the “PPARγ Activation Fold” value at PPARγ [2] was 1.26±0.01. On PPARδ [3], this molecule gave an EC50 of 11.1 nM.
On to `CC(C)(Oc1cccc(OCCn2c3ccccc3c3ccccc32)c1)C(=O)O` [6g, 2-(3-(2-(9H-carbazol-9-yl)ethoxy)phenoxy)-2-methylpropanoic acid], for which the “PPARδ Activation Fold” value at PPARδ [1] was found to be 1.28±0.11. Moreover, the “PPARα Activation Fold” value at PPARα is given as 1.40±0.27. For the same molecule, the “PPARγ Activation Fold” value at PPARγ [2] came to 18.55±0.06. The Cmax at PPARγ [4] was 50000 nM. A half-maximal response at PPARγ [5] (EC50) required 11800 nM.
Take `CC(C)(Oc1cccc(OCc2cccnc2)c1)C(=O)O` [6l, 2-Methyl-2-(3-(pyridin-3-ylmethoxy)phenoxy)propanoic acid]: on PPARδ [1], the “PPARδ Activation Fold” value was found to be 6.60±0.90 and the Cmax is 100 nM. For the same molecule, the “PPARα Activation Fold” value at PPARα amounted to 1.39±0.21. On PPARγ [2], the “PPARγ Activation Fold” value is 1.34±0.01. On PPARδ [3], this molecule had an EC50 of 1.9 nM.
As to `c1cc(OCCn2c3ccccc3c3ccccc32)cc(OCc2nn[nH]n2)c1` [10h, 9-(2-(3-((2H-tetrazol-5-yl)methoxy)phenoxy)ethyl)-9H-carbazole], the “PPARδ Activation Fold” value on PPARδ [1] is given as 1.16±0.05. Further, the “PPARα Activation Fold” value at PPARα was 0.81±0.02. Moreover, the “PPARγ Activation Fold” value at PPARγ [2] came to 26.81±1.56. The molecule also returned a Cmax on PPARγ [4] of 30000 nM. On PPARγ [5], this molecule registered an EC50 of 6970 nM.
With `c1cncc(COc2cccc(OCc3nn[nH]n3)c2)c1` [10l, 3-((3-((2H-tetrazol-5-yl)methoxy)phenoxy)methyl)pyridine], on PPARδ [1], the “PPARδ Activation Fold” value was 9.56±2.50 and the Cmax was found to be 100 nM. Moreover, at PPARα, the “PPARα Activation Fold” value was determined as 1.15±0.06. In addition, on PPARγ [2], the “PPARγ Activation Fold” value is listed as 1.07±0.03. The same molecule showed an EC50 at PPARδ [3] of 27.3 nM.
